Here are results for 1 compound from BindingDB's records for patent US20240101544 (2024).

Broadly, the pIC50 is the IC50 on a negative log10 scale, so that one unit is a factor of ten. Higher therefore signals a small IC50.

Assay [1] deals with Glutaminyl-peptide cyclotransferase-like protein (Homo sapiens, UniProt Q9NXS2). Kind of assay: QPCTL Enzymatic Activity Assay. On the procedure: QPCTL activity was measured in a coupled-enzyme assay using the QPCTL substrate, glutamine-7-amido-4-methylcoumarin (H-Gln-AMC, Bachem), which is converted to pyroglutamyl-AMC by QPCTL. Pyroglutamyl-AMC is then converted to the fluorescent molecule, AMC, by incubation with the human enzyme pyroglutamyl peptidase-1. […] Final concentrations of DMSO and test compounds were 2% and 30-100 μM, respectively. Following the incubation, H-Gln-AMC substrate was diluted in assay buffer and added to each well for a final concentration of 10 μM. The reaction was incubated for 60 min at 37° C., before stopping it by boiling at 100° C. for 5 minutes and cooling the plate at 4° C. for 3 minutes. […] Following incubation, the fluorescence was measured with a plate reader using excitation at 380 nm and emission at 460 nm.

Assay [2] has as its target Glutaminyl-peptide cyclotransferase (Homo sapiens, UniProt Q16769). As to the kind of experiment: QPCT Enzymatic Activity Assay. How it is done: QPCT activity was measured in a coupled-enzyme assay using the QPCT substrate, glutamine-7-amido-4-methylcoumarin (H-Gln-AMC, Bachem), which is converted to pyroglutamyl-AMC by QPCT. Pyroglutamyl-AMC is then converted to the fluorescent molecule, AMC, by incubation with the human enzyme pyroglutamyl peptidase-1 (PGPEP-1). […] Following the incubation, H-Gln-AMC substrate was diluted in assay buffer and added to each well for a final concentration of 10 μM. The reaction was incubated for 60 min at 37° C., before stopping it by boiling at 100° C. for 5 minutes and cooling the plate at 4° C. for 3 minutes. […] Following incubation, the fluorescence was measured with a plate reader using excitation at 380 nm and emission at 460 nm.

SMILES strings stand for the structures. pIC50: −log10 of the molar value. A value given as a limit tells only on which side of the number the result lay.

Sequence of Glutaminyl-peptide cyclotransferase-like protein (Q9NXS2 whole entry): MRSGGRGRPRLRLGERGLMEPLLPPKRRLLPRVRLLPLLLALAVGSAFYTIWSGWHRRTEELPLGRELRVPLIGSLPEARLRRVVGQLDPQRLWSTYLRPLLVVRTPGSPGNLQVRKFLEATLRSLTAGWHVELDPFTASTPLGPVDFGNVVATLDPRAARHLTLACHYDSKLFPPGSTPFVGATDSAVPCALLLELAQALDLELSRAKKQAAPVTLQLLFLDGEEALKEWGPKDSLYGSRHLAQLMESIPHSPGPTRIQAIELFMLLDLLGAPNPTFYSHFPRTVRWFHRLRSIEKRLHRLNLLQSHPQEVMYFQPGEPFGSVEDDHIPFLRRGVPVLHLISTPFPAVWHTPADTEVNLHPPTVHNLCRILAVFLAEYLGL
Sequence of Glutaminyl-peptide cyclotransferase (Q16769 whole entry): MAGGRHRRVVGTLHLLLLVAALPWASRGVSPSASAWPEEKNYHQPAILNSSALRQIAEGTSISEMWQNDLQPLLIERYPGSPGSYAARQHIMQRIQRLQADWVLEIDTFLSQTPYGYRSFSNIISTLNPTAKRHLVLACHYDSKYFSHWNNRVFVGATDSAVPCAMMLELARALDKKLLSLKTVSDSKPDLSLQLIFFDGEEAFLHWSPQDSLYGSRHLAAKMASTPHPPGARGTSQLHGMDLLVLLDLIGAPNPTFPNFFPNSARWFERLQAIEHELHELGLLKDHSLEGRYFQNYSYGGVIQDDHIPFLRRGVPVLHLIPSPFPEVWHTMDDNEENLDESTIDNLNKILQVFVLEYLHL

`Cn1cncc1C1CCN(c2c(C#N)ccnc2-c2ccc(F)nc2)CC1` [US20240101544, Example 134]: the negative-log IC50 (pIC50) in assay [1] and in assay [2] was greater than 7.00 in each case.
